Assay results: a melting point compilation (Tetko et al.; mined from patent text by program, amines drawn as free bases though some values may be those of a salt)

melting point [°C]	Structure (SMILES)
118 to 120	CCCCC1=C(C#N)N(O)CS1
68 to 70	CCOC(=O)COc1c(C(=O)OC)cc(Cl)cc1[N+](=O)[O-]
156 to 157	Cc1cc2c(c(C)c1NC(=O)OC(C)(C)C)C(=O)C(C)(C)O2
104 to 106	CCCCCC(=O)c1c(CN(CC)CC)nc2cc(OC)c(OC)cc2c1-c1ccc(OC)c(OC)c1
72.5 to 81	COC(=O)c1cn(C)cn1
97 to 98	COc1ccc(C(=O)c2ccccc2NC(=O)CNC(=O)OCc2ccccc2)cc1
234 to 236	O=C1Cc2c(-c3ccccc3)ccc(Cl)c2N1
263 to 264	Cc1ccc(S(=O)(=O)N2CCC(S(=O)(=O)c3ccc(Cl)cc3)CC2)cc1
166 to 169	CCOc1ccc(Cc2cn(C3OC(COC(C)=O)C(OC(C)=O)C(OC(C)=O)C3OC(C)=O)c3cccc(Cl)c23)cc1 (configuration not stated)
204 to 206	O=C(O)Cc1ccc(NC(=O)C(Cc2ccccc2)NS(=O)(=O)c2ccc(Cl)cc2)cc1 (racemic)
128 to 129	C=CCNc1nc(N)nc2c1ncn2C1CC(F)C(CO)O1 (configuration not stated)
91 to 93	O=C1CC(ON(Cc2ccccc2)Cc2ccccc2)C(=O)N1c1ccccc1 (configuration not stated)
175	Fc1ccc(F)c(CN2CCNc3ncc(I)cc32)c1
228 to 230	N#Cc1ccc2c(c1)S(=O)(=O)c1ccc(Cl)cc1C=C2
138	O=C(O)CC1(c2ccc(Cl)cc2)Oc2ccccc2O1
64 to 66	CC(=O)c1ccc2cc(C(C)Br)ccc2c1 (configuration not stated)
118 to 121	c1cc(-n2cnnn2)ccc1SCN1CCOCC1
49 to 54	COc1ccc(C(=O)CC(C)C)c(Cl)c1Cl

melting point [°C]	Structure (SMILES)
157 to 158	CN(C)C=NS(=O)(=O)c1cc(Br)cc(Br)c1
120 to 125	CCN(CC)c1ccc(C2(c3c(C)n(CC)c4ccccc34)OC(=O)c3cccnc32)c(OC2CCCC2)c1 (configuration not stated)
233 to 235	Oc1ccc(-c2c(Cl)c3cc(O)ccc3n2Cc2ccc(OCCN3CCCC3)cc2)cc1
168 to 170	Cc1oc2ccc(Nc3ncccc3N)cc2c1C
218 to 221	O=C(O)Cc1ccc(C(=O)O)cc1Sc1ccc(F)cc1
88	CN(C)C(=O)CCO[C@H]1CC[C@H](N(C)S(=O)(=O)c2ccc(C(F)(F)F)cc2)CC1
267 to 268	Cc1cc(CNC(=O)c2nc3ccc(F)c(OCCc4ccc(C(=O)O)cc4)c3c(=O)[nH]2)ccc1F
153 to 155	COC(=O)CCCNC(=O)/C=C/C=C/c1ccccc1
211 to 212	CNC(=O)CCc1cn(Cc2ccc(C(=O)NS(=O)(=O)c3ccccc3C)cc2OC)c2cc(C(=O)NCC3CCCC3)ccc12
178 to 180	Cc1oc(-c2ccc(F)cc2)nc1COc1cccc2cc(NS(=O)(=O)C(F)(F)F)ccc12
214 to 217	CCCN(CCC)C1Cc2cccc(C(=O)O)c2NC1=O (configuration not stated)
88 to 90	CCCCCCCCCCCCCCOc1ccccc1NC(=O)c1cc(Sc2nnnn2-c2cccc(C(=O)OCC)c2)c2ccccc2c1O
182 to 184	N#CC(Cc1cccc(F)c1)n1nnc2cc3c(cc2c1=O)OC1CCCN1C3=O (configuration not stated)
148 to 149	CCc1cnc(NC(=O)C(c2ccccc2)c2ccccc2)o1
260 to 268	CC1(C)c2cc3[nH]c(-c4ccncc4)nc3cc2C(=O)NC1O (configuration not stated)
118 to 120	CCN(C=C(C#N)C#N)c1cc(C(F)(F)F)cc(C(F)(F)F)c1
255	COc1ccc(-c2[nH]nc3c2C(=O)c2c(NC(=O)Cc4ccccc4OC)cccc2-3)cc1
175 to 177	Nc1ccc(C#Cc2ccc(C#Cc3ccccc3)c([N+](=O)[O-])c2)cc1

Second part, the molecule before the results:

Structure (SMILES)	melting point [°C]
COc1ccc(CNC(=O)c2cc3c(=O)n(CC#Cc4ccccc4)c(=O)n(C)c3s2)cc1	168 to 171
CC(C(=O)O)c1ccc2c(c1)CCc1ccccc1S2 (configuration not stated)	103 to 104
O=c1[nH]c2ccccc2n1CCCN1CCC(O)(c2ccc(Cl)c(C(F)(F)F)c2)CC1	189
O=C1OC[C@@H](c2ccccc2)N[C@H]1Cc1ccccc1	75 to 76
COC(=O)CCc1cc2cc(Cl)ccc2n1S(=O)(=O)c1cccc(C)c1	105 to 108
O=c1[nH]cc(-c2cccnc2)nc1Cc1ccccc1	188 to 190
O=C1C(=O)c2ccccc2C2=C1SCC1(CCN(CC3CCCCO3)CC1)O2 (configuration not stated)	135 to 137
Cn1cc(C(=O)C(=O)N2CCN(c3nc4cc(C(=O)Nc5nc(C(C)(C)C)cs5)ccn4c(=O)c3/C=C/C(=O)O)CC2)nc1N	210 to 216
N#Cc1c(Cl)c2cc(F)ccc2n(Cc2ccc(F)cc2)c1=O	236
O=c1c(CCO)c(O)c2cccnc2n1-c1ccccc1	235 to 236
CS(=O)(=O)c1ncc(-c2ccccc2)c(C(F)(F)F)n1	110 to 112
COc1ccc2cc3c(=O)c(C#N)c[nH]c3cc2c1	> 265
COC(=O)CC(=O)c1cc(F)c(OC)c(F)c1	64 to 67
Nc1ccc(NCCO)c(C(F)(F)F)c1	74 to 75
Oc1c2c(nn1-c1ccc(C(F)(F)F)cn1)CCc1ccccc1-2	158 to 159
COC(=O)c1cccc(S(N)(=O)=O)c1I	155 to 157
CCOC(=O)c1nc2ccc(C(C(C)C)n3ccnc3)cc2[nH]c1=O (configuration not stated)	185
Fc1ccc(-c2nc3ccc(N4CCN(C5CC5)CC4)nn3c2-c2ccnnc2)cc1	206 to 209
COc1ccc(CC(=O)N2C=CC(C)(C)C=C2)cc1OC	86 to 89.5
CCCCc1nc2ccn(Cc3cccc(C(=N)N)c3)c(=O)c2n1Cc1ccc2ccc(C(=N)N)cc2c1	190 to 191
COc1ccc(C2=NNC(=O)CC2c2ccncc2)cc1 (configuration not stated)	100 to 102

Structure (SMILES)	melting point [°C]
NC(=O)Cn1c(-c2ccc(Br)o2)nc2cccnc21	> 250
Cc1ccc(Sc2c(SCc3ccccc3)cc(C(=O)O)cc2S(=O)(=O)Cl)cc1	188 to 190
CSC1C(=O)Nc2ccc(Oc3ccccc3)cc21 (configuration not stated)	124 to 128
CC1([N+](=O)[O-])C(c2ccco2)CC(=C(C#N)C#N)CC1c1ccco1 (configuration not stated)	192
NC(=O)Cn1c(-c2ccccn2)nc2cccnc21	275 to 278
Cc1cccc(-c2n[nH]cc2-c2ccc(F)c(-c3cn4c(n3)S(=O)(=O)CC4)c2)n1	134 to 138
CN1C(=O)C(NC(=O)Oc2ccc([N+](=O)[O-])cc2)N=C(c2ccccc2F)c2ccccc21 (configuration not stated)	202 to 204
CC(C)(C)c1cc(NC(=O)NCc2ccc([N+](=O)[O-])cc2)cc(C(C)(C)C)c1O	240 to 241
C[C@H](Cc1c[nH]c2c(OCc3ccccc3)cccc12)NC(=O)OC(C)(C)C	94 to 95
CC(C)c1cccc(C(C)C)c1NC(=O)NCC1=CCCc2ccccc21	170 to 171
Cc1cn2ccc(N)c(Br)c2n1	158 to 160
CNC(=O)n1cnc(C(N)=O)c1N	165 to 169
O=C(O)COC1(Cl)C=C2ONC(c3ccccc3F)=C2C(Cl)=C1Cl (configuration not stated)	222 to 224
Cc1cc2c(NCc3ccc4c(c3)OCO4)nc(-c3ccc(C(=O)O)cc3)nc2s1	> 250
COCCc1nc2c(N)nc3ccccc3c2n1CCCCNC(=O)c1ccc(-n2cccc2)cc1	173 to 175
O=C1c2ccccc2C(=O)N1OCCCN1CCN(c2cccc(Cl)c2)CC1	140 to 142
CC(=O)c1ccccc1-c1noc2ccccc12	108
COc1ccc(-n2ncc(-c3ccc(C=Cc4ccc(-c5nc6ccccc6o5)cc4)cc3)n2)cc1	255
CC(=O)N1CCN(c2ccc(N=CNc3cc(Cl)cc(C(=Cc4ccccc4Cl)C(N)=O)c3)cc2)CC1	259 to 260
COC(=O)c1cc2cc(OC)c(OC)cc2c(-c2ccnc(-n3c(=O)cc(C(=O)N4CCOCC4)c4ccccc43)c2)c1C(=O)OC	247 to 249
C=CCc1ccc2oc(C(=O)c3ccc(OC)cc3)c(C)c2c1O	48 to 50

Structure (SMILES)	melting point [°C]
COC(=O)c1cc(-c2nccs2)cc2c1OC(c1ccccc1)(c1ccccc1)O2	154 to 155
CCOC(=O)c1[nH]c2cc(Cl)cc(Cl)c2c1NCC(=O)OCCCC(=O)c1ccccc1	139 to 140
CC(=O)c1c(C)nc2c(OCc3c(Cl)ccc(S(=O)(=O)N4CCC[C@H]4C(=O)NCCCNC(=O)c4ccc(C(N)=NO)cc4)c3Cl)cccn12	164 to 166
COc1ccc(/C(C)=C/c2ccc(C(=O)O)cc2)cc1C1(C)CCCCC1	175 to 176
NC(=O)C1CN1Cc1ccccc1 (configuration not stated)	114 to 116
CC(=N)Nc1ccccc1N1CCOCC1	140 to 141
CC(C)c1cn2ccccc2c1S(=O)(=O)c1ccc(OCCCN2CCN(C(c3ccccc3)c3ccccc3)CC2)cc1	170
NS(=O)(=O)c1cccc(-c2cccc(-c3nc(-c4ccc(Cl)cc4Cl)cc(C(F)(F)F)n3)c2)c1	202
CCS(=O)(=O)NCc1cccc(-c2nc(=O)c3ccccc3s2)n1	170 to 171
Cn1c(=S)n(C)c(=O)n(-c2c(F)cc(Cl)c3ncoc23)c1=O	209 to 211
CN(C)CCc1cn(S(=O)(=O)c2ccccc2)c2ccc(O)cc12	185 to 188
O=C(NCCCn1cncn1)c1ccco1	63 to 66
CC(C)c1ccc(S(=O)(=O)O)cc1	35.2 to 36.7
COc1ccnc(CCc2nc3cncnc3[nH]2)c1	150 to 152
O=C(O)COc1cc2c(-c3ccc(Cl)cc3)csc2c(Cl)c1Cl	206 to 208
CCCCC(=O)c1c(-c2ccc3c(Br)c(OCC(=O)O)ccc3c2)oc2ccc(Cl)cc12	130 to 132
CNC(=O)[C@@H]1C[C@H](SCc2ccc(OC)cc2)CN1C	82 to 84
CC(=O)Nc1cc(N2CCN(C(=O)OC(C)(C)C)CC2)ccc1S(=O)(=O)c1ccccc1	129 to 130
O=P1(O)Oc2c(-c3ccc(Cl)cc3)cc(Cl)cc2-c2ccc(Cl)cc21	260
